“Also recorded” adds a separate entry of the source.
Legend:
[1] = system: E. faecalis; assay: Kill or inhibit growth/proliferation; morphology, biofilm and growth disruption (Tables 5, 6); assay type: cell-based, Enterococcus faecalis; design: key: A: Peptide aggregates; B: Less hyphal formation; Clumps; Diffuse clumps and small polyps; F: Diffuse growth; H: Thin; I: Growth inhibition; Microcolony formation; Rippled; Small polyps; Thick; W: Halo formation on top, microlonies on bottom; further: test concentration or dose not given here
[2] = system: E. coli; assay: as above; assay type: cell-based, Escherichia coli; design: key: A: Peptide aggregates; B: Less hyphal formation; Clumps; Diffuse clumps and small polyps; F: Diffuse growth; H: Thin; I: Growth inhibition; Microcolony formation; Rippled; Small polyps; Thick; W: Halo formation on top, microlonies on bottom; further: test concentration or dose not given here
[3] = system: S. pneumoniae; assay: as above; assay type: cell-based, Streptococcus pneumoniae; design: key: A: Peptide aggregates; B: Less hyphal formation; Clumps; Diffuse clumps and small polyps; F: Diffuse growth; H: Thin; I: Growth inhibition; Microcolony formation; Rippled; Small polyps; Thick; W: Halo formation on top, microlonies on bottom; further: test concentration or dose not given here
[4] = system: C. jejuni; assay: as above; assay type: cell-based, Campylobacter jejuni; design: key: A: Peptide aggregates; B: Less hyphal formation; Clumps; Diffuse clumps and small polyps; F: Diffuse growth; H: Thin; I: Growth inhibition; Microcolony formation; Rippled; Small polyps; Thick; W: Halo formation on top, microlonies on bottom; further: test concentration or dose not given here
[5] = system: S. epidermidis; assay: as above; assay type: cell-based, Staphylococcus epidermidis; design: key: A: Peptide aggregates; B: Less hyphal formation; Clumps; Diffuse clumps and small polyps; F: Diffuse growth; H: Thin; I: Growth inhibition; Microcolony formation; Rippled; Small polyps; Thick; W: Halo formation on top, microlonies on bottom; further: test concentration or dose not given here
[6] = system: P. aeruginosa; assay: as above; assay type: cell-based, Pseudomonas aeruginosa; design: key: A: Peptide aggregates; B: Less hyphal formation; Clumps; Diffuse clumps and small polyps; F: Diffuse growth; H: Thin; I: Growth inhibition; Microcolony formation; Rippled; Small polyps; Thick; W: Halo formation on top, microlonies on bottom; further: test concentration or dose not given here
[7] = system: MRSA; assay: as above; assay type: cell-based, Methicillin-resistant Staphylococcus aureus; design: key: A: Peptide aggregates; B: Less hyphal formation; Clumps; Diffuse clumps and small polyps; F: Diffuse growth; H: Thin; I: Growth inhibition; Microcolony formation; Rippled; Small polyps; Thick; W: Halo formation on top, microlonies on bottom; further: test concentration or dose not given here
[8] = system: microorganisms; assay: Peptides having multiple activities (targeting/binding, antimicrobial, growth or phenotype altering)
Excerpt: In certain embodiments, peptides described herein can have multiple activities. Thus for example, a peptide can have both binding/targeting activity and antimicrobial activity. Such peptides can be used, e.g., in a chimeric construct, for any or all of these properties. Thus, for example, a peptide designated “B” in Table 8 can be used as a targeting peptide. If it is also designated G or M it can also be used for antimicrobial activity.

[9] = system: S. mutans; assay: Kill or inhibit growth/proliferation; morphology, biofilm and growth disruption (Tables 5, 6); assay type: cell-based, Streptococcus mutans; design: key: A: Peptide aggregates; B: Less hyphal formation; Clumps; Diffuse clumps and small polyps; F: Diffuse growth; H: Thin; I: Growth inhibition; Microcolony formation; Rippled; Small polyps; Thick; W: Halo formation on top, microlonies on bottom; further: test concentration or dose not given here
[10] = system: microorganisms (e.g., bacteria, yeasts, fungi); assay: Targeting peptide binding to target microorganisms (Table 3); details: preferably 1x PBS; for Target(s) (microorganisms bound by the targeting peptide): peptide binding in aqueous buffers varied by peptide solubility
[11] = system: M. luteus; assay: Kill or inhibit growth/proliferation; morphology, biofilm and growth disruption (Tables 5, 6); assay type: cell-based, Micrococcus luteus; design: key: A: Peptide aggregates; B: Less hyphal formation; Clumps; Diffuse clumps and small polyps; F: Diffuse growth; H: Thin; I: Growth inhibition; Microcolony formation; Rippled; Small polyps; Thick; W: Halo formation on top, microlonies on bottom; further: test concentration or dose not given here
[12] = microorganism(s) the targeting peptide binds, binding in aqueous buffers depending on peptide solubility
[13] = microorganism the targeting peptide binds, binding in aqueous buffers varied by peptide solubility

| Substance | Organism, effect [3] | Organism, effect [5] | Organism, effect [6] | Organism, effect [7] | Activities [8] | Organism, effect (morphology, biofilm and growth disruption) [9] | Target(s) (microorganisms bound by the targeting peptide) [10] | further results |
| --- | --- | --- | --- | --- | --- | --- | --- | --- |
| ALCSVIKAIELGIINVHLQ [PF-366] | S. pneumoniae (C) | S. epidermidis (R) | P. aeruginosa (A) | MRSA (D) | G B | – | – | Organism, effect [1]: E. faecalis (C); Organism, effect [2]: E. coli (C); Organism, effect [4]: C. jejuni (D) |
| KKFKIFVIINWFYHKYIILNFEENF [PF-C085] | – | – | – | – | G B | S. mutans (F) | A. naeslundii; also recorded: F. nucleatum; also recorded: P. gingivalis; also recorded: S. mutans; also recorded: T. denticola | – |
| LSPRPIIVSRRSRADNNNDWSR [PF-143] | – | – | P. aeruginosa (C) | – | G B | – | – | Target(s) [10, 12]: S. epidermidis and MRSA and C. jeikeium |
| PF-020: peptide having multiple activities (chain 1 MKIILLLFLIFGFIVVVTLKSEHQLTLFSI; chain 2 MKIILLLFLIFGFIVVVTLKSEHQLTLFSI; Peptide with targeting and/or antimicrobial activity) | S. pneumoniae (D) | S. epidermidis (C) | – | MRSA (C) | G B | – | – | Organism, effect [9]: S. mutans (F); Organism, effect [11]: M. luteus (C); Target(s) [10, 13]: S. epidermidis and M. luteus and C. albicans and MRSA and S. pneumoniae and E. faecalis |
| PF-051: peptide having multiple activities (chain 1 RFFNFEIKKSTKVDYVFAHVDLSDV; chain 2 RFFNFEIKKSTKVDYVFAHVDLSDV; Peptide with targeting and/or antimicrobial activity) | S. pneumoniae (D) | S. epidermidis (D) | – | MRSA (D) | G B | – | – | Organism, effect [9]: S. mutans (D); Organism, effect [11]: M. luteus (C); Target(s) [10, 13]: S. epidermidis and M. luteus and P. aeruginosa and C. albicans and MRSA and S. pneumoniae and E. faecalis |
| PF-128: peptide having multiple activities (GIKVVAARFEEIQFSENFDSIILA; Peptide with targeting and/or antimicrobial activity) | – | S. epidermidis (D) | P. aeruginosa (C) | – | G B | – | – | Target(s) [10, 12]: M. luteus; also recorded: P. aeruginosa; also recorded: E. faecalis |
| PF-356: peptide having multiple activities (chain 1 VSIKIGAIVIGMIGLMELLTE; chain 2 VSIKIGAIVIGMIGLMELLTE; Peptide with targeting and/or antimicrobial activity) | S. pneumoniae (R) | S. epidermidis (S) | P. aeruginosa (A) | MRSA (C) | G B | – | – | Organism, effect [1]: E. faecalis (R); Organism, effect [4]: C. jejuni (D) |
| PF-454: peptide having multiple activities (chain 1 MSVFVPVTNIFMFIMSPIFNVNLLHFKVYI; chain 2 MSVFVPVTNIFMFIMSPIFNVNLLHFKVYI; Peptide with targeting and/or antimicrobial activity) | S. pneumoniae (R) | S. epidermidis (C) | P. aeruginosa (H) | MRSA (C) | G B | – | – | Organism, effect [1]: E. faecalis (C); Organism, effect [2]: E. coli (R) |
| PF-458: peptide having multiple activities (chain 1 ISLIIFIMLFVVALFKCITNYKHQS; chain 2 ISLIIFIMLFVVALFKCITNYKHQS; Peptide with targeting and/or antimicrobial activity) | S. pneumoniae (M) | – | P. aeruginosa (H) | MRSA (M) | G B | – | – | – |
| PF-535 (NIKTRKRALKIIKQHQRSK; Peptide with targeting and/or antimicrobial activity) | S. pneumoniae (H) | – | P. aeruginosa (H) | – | – | – | – | – |
| PF-536 (MEPIPHIMIIANQIGIIIEKA; Peptide with targeting and/or antimicrobial activity) | S. pneumoniae (M) | S. epidermidis (C) | P. aeruginosa (H) | MRSA (C) | – | – | – | Organism, effect [1]: E. faecalis (C); Organism, effect [2]: E. coli (R) |
| PF-543: peptide having multiple activities (chain 1 NILFGIIGFVVAMTAAVIVTAISIAK; chain 2 NILFGIIGFVVAMTAAVIVTAISIAK; Peptide with targeting and/or antimicrobial activity) | S. pneumoniae (D) | S. epidermidis (D) | – | MRSA (D) | G B | – | – | Organism, effect [9]: S. mutans (S); Organism, effect [11]: M. luteus (C); Organism, effect [2]: E. coli (C) |
| PF-776: peptide having multiple activities (VSILLYLSATIILPNVLRLLVARAIIVRV; Peptide with targeting and/or antimicrobial activity) | – | – | – | – | G B | S. mutans (D) | S. epidermidis and M. luteus and P. mirabilis and C. albicans and MRSA and S. pneumoniae and E. faecalis | Organism, effect (morphology, biofilm and growth disruption) [11]: M. luteus (C); Organism, effect (morphology, biofilm and growth disruption) [2]: E. coli (C); Organism, effect (morphology, biofilm and growth disruption) [3]: S. pneumoniae (C); Organism, effect (morphology, biofilm and growth disruption) [5]: S. epidermidis (D); Organism, effect (morphology, biofilm and growth disruption) [7]: MRSA (D) |
| PF-C057: peptide having multiple activities (YFWWYWVQDCIPYKNNEVWLELSNNMK; Peptide with targeting and/or antimicrobial activity) | – | – | – | – | G B | S. mutans (I) | A. naeslundii; also recorded: F. nucleatum; also recorded: P. gingivalis; also recorded: S. mutans | – |
| PF-C139: peptide having multiple activities (LLASHPERLSLGVFFVYRVLHLLLENT; Peptide with targeting and/or antimicrobial activity) | – | – | – | – | G B | S. mutans (F) | A. naeslundii; also recorded: F. nucleatum; also recorded: P. gingivalis; also recorded: S. mutans; also recorded: T. denticola | – |
| PF-C142: peptide having multiple activities (DFPPLSFFRRRFHAYTAPIDNFFGANPF; Peptide with targeting and/or antimicrobial activity) | – | – | – | – | G B | S. mutans (I) | A. naeslundii; also recorded: F. nucleatum; also recorded: P. gingivalis; also recorded: S. mutans; also recorded: T. denticola | – |
| PF-C281: peptide having multiple activities (KKEKLLTAIRLQHRAEIRGYFTIFFLFFRI; Peptide with targeting and/or antimicrobial activity) | – | – | – | – | G B | S. mutans (F) | A. naeslundii; also recorded: F. nucleatum; also recorded: P. gingivalis; also recorded: S. mutans; also recorded: T. denticola | – |

Source: US20110039762A1, “TARGETED ANTIMICROBIAL MOIETIES” (C3 JIAN, INC., priority 2009, published 2011)
